{"source": "paper PMC9953095", "about": "“Design, Synthesis and Biological Evaluation of Quinazolinamine Derivatives as Breast Cancer Resistance Protein and P-Glycoprotein Inhibitors with Improved Metabolic Stability” (Biomolecules, 2023)", "format_in_all_cases": "cell-based, human", "key": {"[1]": {"tested_on": "BCRP protein in H460/MX20 cells", "assay": "Western blot of BCRP expression in H460/MX20 cells", "experimental": "Cells in T25 flask were washed with ice-cold PBS. Lysis buffer (100 µL) was added into T25 flask. Using a cell scraper, scrape adherent cells were scraped off the flask and the cell suspension was transferred into a microcentrifuge tube (1.5 mL). Cells were agitated for 20 min at 4 °C and cell lysate was centrifuged mixture at 4 °C for 20 min at 12,000 rpm. The supernatant (lysate) was used for the gel electrophoresis. Equal amounts of total cell lysates (20 µg protein) were resolved by sodium dodecyl sulfate polyacrylamide gel electrophoresis (SDS-PAGE) and electrophoretically transferred onto polyvinylidene fluoride (PVDF) membranes. After incubation in a blocking solution (5% milk) for 2 h at room temperature, the membranes were incubated overnight with primary monoclonal antibodies against GAPDH (GA1R) (Invitrogen, Carlsbad, CA, USA) at 1:1000 dilution of BCRP protein (BXP 21) (Sigma-Aldrich, Inc., St. Louis, MO, USA) (1:1000) or P-gp (F4) (Sigma-Aldrich, Inc., St. Louis, MO, USA) at 4 °C, and were further incubated with horseradish […] (HRP)-conjugated secondary antibody (Thermo Fisher Scientific Inc., Waltham, MA, USA) at 1:1000 dilution for 2 h at room temperature. The protein antibody complex was detected using an enhanced chemiluminescence detection system. The grayscale ratio was analyzed by ImageJ and normalized by the grayscale of the ABC protein divided by that of GAPDH."}, "[2]": {"tested_on": "BCRP localization in H460/MX20 cells", "assay": "Immunofluorescence assay of BCRP localization in H460/MX20 cells", "settings": "5 μM for 24, 48, and 72 h, Figure 8A,C", "experimental": "(§1) For immunofluorescence analysis, parental and drug-resistant cells were seeded in 24-well plates at 10,000–20,000 cells/well and incubated for 24 h. The cells were incubated with or without cyclopropyl quinazolinamine 22 or azide quinazolinamine 33 for 24 h, 48 h, and 72 h. Thereafter, cells were washed with PBS and fixed with 4% paraformaldehyde for 10 min at room temperature and then rinsed with PBS twice, followed by permeabilization with 1% Triton X-100 for 10 min at 4 °C. The cells were again washed twice with PBS, and then blocked with 6% BSA for 1 h at 37 °C. Fixed cells were incubated with monoclonal antibody against the BCRP protein (BXP 21) (Sigma-Aldrich, Inc., St. Louis, MO) (1:1000) or P-gp (F4) (Sigma-Aldrich, Inc., St. Louis, MO, USA) overnight at 4 °C, followed by two washes with PBS. The cells were then further incubated with Alexa flour 488 goat anti-mouse IgG (1:1000) (Abcam plc.) for 2 h at 37 °C. After the cells were washed twice with PBS, 4′,6-diamidino-2-phenylindole (DAPI) (2 µg/mL) was used for nuclear counterstaining. The immunofluorescence images were generated using a Nikon TE-2000S fluorescence microscope (Nikon Instruments Inc, Melville, NY, USA)."}, "KB-3-1 cells": {"tested_on": "KB-3-1 cells", "assay": "[3H]-paclitaxel accumulation assay, KB-3-1", "settings": "parental cells KB-3-1; compound 5 μM; Figure 6B", "experimental": "(§2) To determine the accumulation of drugs on H460, H460/MX20, KB-3-1, and KB-C2 cells, the cells ([…] cells/well) were seeded in the 24-well plates and incubated at 37 °C with 5% CO2 [17]. After 12 h of incubation, a test compound (5 µM) was added and the plates were incubated at 37 °C for 2 h. Cells were then incubated with 0.01 µM [^3H]-MX or [^3H]-paclitaxel-containing medium for an additional 2 h at 37 °C, with or without a test compound. The cells were washed twice with ice-cold phosphate-buffered saline (PBS), trypsinized and lysed at the end of incubation. The radioactivity was measured using the Packard TRICARB1 1900A liquid scintillation analyzer."}, "[3]": {"tested_on": "P-gp localization in KB-C2 cells", "assay": "Immunofluorescence assay of P-gp localization in KB-C2 cells", "settings": "Figure 8B", "experimental": "as §1"}, "H460 cells": {"tested_on": "H460 cells", "assay": "[3H]-mitoxantrone accumulation assay, H460", "settings": "parental H460 cells; compound 5 μM; Figure 6A", "experimental": "as §2"}}}
{"molecule": "c1ccc2c(Nc3ccc(C4CC4)cc3)nc(-c3ccncc3)nc2c1", "note": "[Compound 22, N-(4-Cyclopropylphenyl)-2-(pyridin-4-yl)quinazolin-4-amine]", "values": [{"measurement": "BCRP protein expression level in the cytoplasm", "setting": "[1]; H460/MX20 cytoplasm fraction, Figure 9B", "result": "increased"}, {"measurement": "expression level of BCRP protein on the membrane", "setting": "[1]; H460/MX20 membrane fraction, Figure 9A", "result": "decreased"}, {"measurement": "expression level of BCRP protein", "setting": "[1]; H460/MX20 total cell lysate, Figure 7", "result": "did not change the expression level"}, {"measurement": "BCRP fluorescence on the membranes / intracellular localization of BCRP", "setting": "[2]", "result": "decreased gradually"}, {"measurement": "accumulation of paclitaxel", "setting": "KB-3-1 cells", "result": "did not increase"}, {"measurement": "P-gp fluorescence on the membranes", "setting": "[3]; 5 μM at 72 h", "result": "decreased slightly"}, {"measurement": "P-gp fluorescence on the membranes", "setting": "[3]; 5 μM for 24 and 48 h", "result": "did not decrease significantly"}, {"measurement": "accumulation of mitoxantrone", "setting": "H460 cells", "result": "slightly increase"}]}
